These results are taken from paper PMC8672735, “Computational and experimental investigation of the effect of cation structure on the solubility of anionic flow battery active-materials” (Chemical Science, 2021).

Data set [1] can be described thus: Experimental solubility of [Nxxxx]y[VBH] active materials (maximum concentration by UV-Vis spectroscopy). It is filed as physicochemical. Particulars: anhydrous, organic solvent or mixture, read-out: Experimental solubility (maximum concentration of VBH in the electrolyte). From the text: To investigate the solubilities of VBH-based active materials, we synthesized the alkylammonium [VBH] compounds in their reduced (+4) and oxidized (+5) states ([Nxxxx]2[V(+4)BH] and [Nxxxx][V(+5)BH], where x = 1 (methyl), 2 (ethyl), 3 (n-propyl), 4 (n-butyl)) and measured their solubilities in tetrahydrofuran (THF), acetonitrile (MeCN), dimethyl sulfoxide (DMSO), and propylene carbonate (PC). […] This led us to explicitly explore the interplay between competing trends in solvation energy and lattice enthalpy, which was implied by our previous work,[5] using a combined computational and synthetic strategy.
UV-Vis spectra were collected using the Evolution 220 UV-visible spectrophotometer with a quartz cuvette of 1 cm path length. The molar extinction coefficients for oxidized and reduced species in all solvents except for DMSO were used as determined in our previous study.[5] Molar extinction coefficients for oxidized species in DMSO were determined from a calibration curve. Infrared spectra were collected on a Thermo Scientific Nicolet iS5 equipped with iD7ATR module and a diamond crystal. ^1H- and ^13C-NMRs were performed on Bruker AVANCE III HD 400 MHz High-Performance Digital NMR spectrometer operating at 400 MHz for ^1H NMR and 101 MHz for ^13C NMR. Data acquisition was performed on IconNMR 5.0.3, and spectra were processed in TopSpin 3.5 and Mnova. High-Resolution Mass Spectrometry (HRMS) was performed on a Waters ACQUITY UPLC Xevo QTOF high resolution mass spectrometer using electrospray ionization. X-ray crystallographic experiments were performed on a Bruker D8 Venture X-instrument, using Mo Kα radiation at 200 K. Data were corrected for absorption using SADABS. The structures were solved by direct methods. All non-hydrogen atoms were refined anisotropically by full matrix least-squares on F^2 and all hydrogen atoms except those on water were placed in calculated positions with appropriate riding parameters. Further refinement and molecular graphics were obtained using Bruker Suite of structural programs,[55] OLEX2,[56] and Mercury.[57]
Hydroxylamine hydrochloride (Alfa Aesar), sodium hydroxide (Acros organics), chloroacetic acid (BTC), zinc acetate dihydrate (Acros Organics), calcium chloride (VWR), tetramethylammonium fluoride tetrahydrate (Matrix Scientific), tetraethylammonium fluoride (BTC), triethylamine (Acros Organics), n-butylbromide (Alfa Aesar), n-propylbromide (BTC), ferrocenium hexafluorophosphate (Sigma Aldrich), and vanadyl (iv) acetylacetonate (BTC) were purchased from commercial sources and used as received. Information on the characterization of new materials and those that were reported previously, and were used for solubility studies herein, are provided below. Solvent used in solubility measurement were of anhydrous grade and purchased from Sigma Aldrich.

For data set [2] the following is noted: in DMSO and MeCN at 0.01 M, 0.05 M, 0.1 M, 0.2 M, and 0.5 M; 25 °C.
Protocol: The viscosity measurements were collected using the Cannon Instruments Semi-Micro Viscometer. Concentrations of 0.01 M– 0.55 M were used when collecting the viscosity data at ambient temperature (25 °C). The U-tube style viscometer allowed for the collection of kinematic viscosity in centiStokes (cSt) which was then converted to dynamic viscosity in centiPoise (cP) using the electrolyte density.
The mark [3] stands for this setting: acetonitrile (MeCN), MeCN (ϵ = 37), +5 state, [Nxxxx][VBH].
[4] abbreviates: dimethyl sulfoxide (DMSO), DMSO (ϵ = 47), +5 state, [Nxxxx][VBH].
[5] abbreviates: propylene carbonate (PC), PC (ϵ = 66), +5 state, [Nxxxx][VBH].
Where [6] appears, read: acetonitrile (MeCN), MeCN (ϵ = 37), +4 state, [Nxxxx]2[VBH].
Setting [7] is: dimethyl sulfoxide (DMSO), DMSO (ϵ = 47), +4 state, [Nxxxx]2[VBH].
Setting [8] is: propylene carbonate (PC), PC (ϵ = 66), +4 state, [Nxxxx]2[VBH].

Molecules are shown by their SMILES. Like-named read-outs stand apart in the source and are kept apart here.

In the case of `CC[N+](CC)(CC)CC` [compound 2222], the results for the solubility in data set [1] (setting [3]), in data set [1] (setting [4]) and in data set [1] (setting [5]) were 64 mM, 804 mM and 215 mM, respectively.

Regarding `CCC[N+](C)(C)C` [compound 1113], the solubility stood at 24 mM in data set [1] (setting [6]); 8 mM in data set [1] (setting [3]); 246 mM in data set [1] (setting [7]); 252 mM in data set [1] (setting [4]); 108 mM in data set [1] (setting [8]); 40 mM in data set [1] (setting [5]).

Take `CCCC[N+](C)(C)C` [compound 1114]: the solubility in data set [1] (setting [6]) came out at 76 mM; in data set [1] (setting [3]), 7 mM; in data set [1] (setting [7]), 624 mM; in data set [1] (setting [4]), 225 mM; in data set [1] (setting [8]), 377 mM; in data set [1] (setting [5]), 33 mM.

`CCCC[N+](CCCC)(CCCC)CCCC` [[N4444]2[VBH]]: the viscosity result in data set [2] is given as “generally increases with solution concentration”.
